Experiments:
[1] = test system: ATXN3 pre-mRNA; experiment: RT-qPCR Assay to Quantify Exon 4 Skipping in ATXN3 pre-mRNA in Cells; format: cell-based; details: percent exon 4 skipping in ATXN3 pre-mRNA, RT-qPCR of cell lysates; average IC50
Protocol: RT-qPCR Assay to Quantify Exon 4 Skipping in ATXN3 pre-mRNA in Cells
(§1) Test compounds were serially diluted 3.16-fold in 100% DMSO to generate a 7-point concentration curve. Aliquots of 0.5 μL of diluted compounds were transferred to a 96-well flat bottom plate by a liquid handler. An aliquot of 0.5 μL DMSO was also transferred to separate wells and used as controls. Duplicate samples were set up for each compound concentration and for the DMSO control.
Cells were thawed and incubated in cell culture media (DMEM, 10% FBS, and 1% antibiotic cocktail) for 72 h. Cells were trypsinized, counted, and re-suspended to a concentration of 100,000 cells/mL in cell culture media. A 100 μL aliquot of the cell suspensions were plated at 10,000 cells per well in the compound containing 96 well microtiter plate and incubated for in a cell culture incubator (37° C., 5% CO2, 100% relative humidity).
After 24 h, media was aspirated from the cells and 50 μL of the RCL2 lysis buffer (10 mM Tris-HCL pH 7.4, 150 mM NaCl, 0.33% IGEPAL® CA-630) was added to each well and incubated at RT for 1 min. Chilled nuclease free water (50 μL per well) was added and the plates were immediately transferred on ice. After 1 min on ice, plates were frozen at −80° C. overnight.
Preparation of RT-qPCR Reaction Mixture:
An aliquot of 2 μL/well of the cell lysates was transferred using the liquid handler to the Armadillo 384-Well PCR plate containing 8 μL/well of the RT-qPCR reaction mixture that was prepared as detailed above. The plates were then sealed with MicroAmp™ Optical Adhesive Film followed by spinning down for 1 min and placed in the CFX384 thermocycler (BioRad).
The RT-qPCR was carried out at the following temperatures for the indicated time: • Step 1: 48° C. (30 min) • Step 2: 95° C. (10 min) • Step 3: 95° C. (15 sec) • Step 4: 60° C. (1 min); then, repeated Steps 3 and 4 for a total of 40 cycles.
The percent exon 4 skipping was calculated for each dose of compound treatment using Equations 1 and 2.
Data were fit to a dose response curve and the IC50 was interpolated using XLfit® statistical and curve fitting package.
(§2) An average IC50>1 μM is indicated by one star (*), between >0.3 μM and ≤1 μM is indicated by two stars (**), between >0.03 μM and ≤0.3 μM is indicated by three stars (***), and ≤0.03 μM is indicated by four stars (****).

[2] = test system: Total ATXN3 (tATXN3) protein; experiment: Endogenous Total ATXN3 (tATXN3) Protein Assay (MSD immunoassay of cell lysates); format: cell-based; details: average IC50, total ATXN3 protein in cell lysate after 48 h with compound (Table 1)
Protocol: Endogenous Total ATXN3 (tATXN3) Protein Assay
Meso Scale Discovery (MSD) 96-well or 384-well plates were coated overnight at 4° C. with Ataxin 3 mouse monoclonal antibody (Invitrogen, MA3-082) at a concentration of 0.5 μg/mL in PBS (30 μL per well). Plates were then washed three times with 300 μL wash buffer (0.05% TWEEN®-20, polyethylene glycol sorbitan monolaurate, in PBS) and blocked (Meso Scale Diagnostics, R93BA-1; 5% BSA in PBS) for 2 h at RT with rotational shaking and then washed three times with wash buffer.
as §1
Cells were thawed and incubated in cell culture media (DMEM, 10% FBS, and 1% antibiotic cocktail) for 72 h. Cells were trypsinized, counted, and re-suspended to a concentration of 100,000 cells/mL in cell culture media. A 100 μL aliquot of the cell suspensions were plated at 10,000 cells per well in the compound containing 96 well microtiter plate and incubated for in a cell culture incubator (37° C., 5% CO2, 100% relative humidity). After 48 h, the medium was removed and 50-100 μL of lysis buffer (Meso Scale Diagnostics, R60TX-2) containing 1× halt protease inhibitor cocktail of (Thermo Scientific, Halt™ Protease Inhibitor Cocktail, 78430) per well was added to cells to provide a “cell lysate”. The plate was placed on a shaker at 4° C. for 30 minutes, then stored at −80° C.
Cell lysate samples (25 μL) were transferred to the antibody-coated MSD plate and incubated overnight at 4° C. After removal of the lysates, the plate was washed three times with wash buffer, and 25 μL of Ataxin 3 recombinant rabbit monoclonal antibody (Invitrogen, #702788) secondary antibody (diluted to 0.25 μg/mL in 0.05% TWEEN®-20 in blocking buffer) was added to each well and incubated with shaking for 1-2 h at room temperature. Following incubation with the secondary antibody, the wells were rinsed with wash buffer and then 25 μL of Anti Rabbit Antibody Goat SULFO-TAG Labeled (Meso Scale Diagnostics, R32AB-1) detecting antibody (diluted to […] in 0.05% TWEEN®-20 in blocking buffer) was added to each well and incubated with shaking for 1 h at room temperature. After rinsing three times with wash buffer, 150 μL of Read Buffer T with surfactant (tris-based buffer containing tripropylamine, Meso Scale Diagnostics, R92TC-1) were added to each empty well, and the plate was imaged on a SI 6000 imager (MSD) according to manufacturers' instructions provided for 96- or 384-well plates.
as §2

IC50 [1]	IC50 [2]	Compound
30 to 300 nM	30 to 300 nM	N[C@@H]1COCC[C@H]1c1sc2c(NCc3nccs3)cc(Cl)nc2c1Cl [Compound 407, 2-((3S,4R)-3-aminotetrahydro-2H-pyran-4-yl)-3,5-dichloro-N-(thiazol-2-ylmethyl)thieno[3,2-b]pyridin-7-amine]
≤ 30 nM	≤ 30 nM	N[C@H]1CC=CC[C@@H]1c1sc2c(NCc3ccncc3)cc(Cl)nc2c1Cl [Compound 203, 2-((1S,6S)-6-aminocyclohex-3-en-1-yl)-3,5-dichloro-N-(pyridin-4-ylmethyl)thieno[3,2-b]pyridin-7-amine]
≤ 30 nM	≤ 30 nM	6-((2S,3S)-3-aminotetrahydro-2H-pyran-2-yl)-7-bromo-2-chloro-5-(difluoromethyl)-N-(furan-2-ylmethyl)-5H-pyrrolo[3,2-d]pyrimidin-4-amine [Compound 215]
30 to 300 nM	30 to 300 nM	3-bromo-5-chloro-2-[(2R,3S)-3-aminotetrahydropyran-2-yl]-N-(2-thienylmethyl)thieno[3,2-b]pyridin-7-amine and 3-bromo-5-chloro-2-[(2S,3R)-3-aminotetrahydropyran-2-yl]-N-(2-thienylmethyl)thieno[3,2-b]pyridin-7-amine [Compound 20]
300 to 1000 nM	> 1000 nM	CCc1c([C@H]2CCCCCC[C@@H]2N)sc2c(NCc3cccs3)cc(Cl)nc12 [Compound 164, 2-((1S,2S)-2-aminocyclooctyl)-5-chloro-3-ethyl-N-(thiophen-2-ylmethyl)thieno[3,2-b]pyridin-7-amine]
30 to 300 nM	30 to 300 nM	N[C@H]1COCC[C@@H]1c1sc2c(NCc3nccs3)cc(Cl)nc2c1Br [Compound 285, 2-((3R,4S)-3-aminotetrahydro-2H-pyran-4-yl)-3-bromo-5-chloro-N-(thiazol-2-ylmethyl)thieno[3,2-b]pyridin-7-amine]
30 to 300 nM	30 to 300 nM	CN(Cc1ccco1)c1cc(Cl)nc2c(C#CCCCO)c([C@H]3CC=CC[C@@H]3N)sc12 [Compound 336, 5-(2-((1S,6S)-6-aminocyclohex-3-en-1-yl)-5-chloro-7-((furan-2-ylmethyl)(methyl)amino)thieno[3,2-b]pyridin-3-yl)pent-4-yn-1-ol]
> 1000 nM	> 1000 nM	Cc1c([C@H]2CCCCC[C@H]2N)sc2c(NCc3cccs3)cc(Cl)nc12 [Compound 84, 2-((1S,2R)-2-aminocycloheptyl)-5-chloro-3-methyl-N-(thiophen-2-ylmethyl)thieno[3,2-b]pyridin-7-amine]
300 to 1000 nM	> 1000 nM	Cc1c([C@@H]2CCCC[C@H]2N)sc2c(NCc3ccco3)nc(Cl)nc12 [Compound 59, 6-((1R,2R)-2-aminocyclohexyl)-2-chloro-N-(furan-2-ylmethyl)-7-methylthieno[3,2-d]pyrimidin-4-amine]
30 to 300 nM	30 to 300 nM	C[C@@H]1C=CC[C@H](c2sc3c(NCc4cccs4)cc(Cl)nc3c2Br)[C@H]1N.C[C@H]1C=CC[C@@H](c2sc3c(NCc4cccs4)cc(Cl)nc3c2Br)[C@@H]1N (mixture of isomers) [Compound 294, 2-((1R,5S,6R)-6-amino-5-methylcyclohex-3-en-1-yl)-3-bromo-5-chloro-N-(thiophen-2-ylmethyl)thieno[3,2-b]pyridin-7-amine and 2-((1S,5R,6S)-6-amino-5-methylcyclohex-3-en-1-yl)-3-bromo-5-chloro-N-(thiophen-2-ylmethyl)thieno[3,2-b]pyridin-7-amine]
≤ 30 nM	≤ 30 nM	N[C@H]1CCCO[C@@H]1c1sc2c(NCc3ccccc3)cc(Cl)nc2c1Br [Compound 108, 2-((2S,3S)-3-aminotetrahydro-2H-pyran-2-yl)-N-benzyl-3-bromo-5-chlorothieno[3,2-b]pyridin-7-amine]
≤ 30 nM	≤ 30 nM	N[C@H]1CC=CC[C@@H]1c1sc2c(NCc3ccco3)cc(Cl)nc2c1I [Compound 188, 2-((1S,6S)-6-aminocyclohex-3-en-1-yl)-5-chloro-N-(furan-2-ylmethyl)-3-iodothieno[3,2-b]pyridin-7-amine]
30 to 300 nM	30 to 300 nM	N[C@H]1CC=CC[C@@H]1c1sc2c(NCc3nccs3)nc(Cl)nc2c1Cl [Compound 340, 6-((1S,6S)-6-aminocyclohex-3-en-1-yl)-2,7-dichloro-N-(thiazol-2-ylmethyl)thieno[3,2-d]pyrimidin-4-amine]
30 to 300 nM	300 to 1000 nM	N[C@@H]1CC=CC[C@H]1c1sc2c(NCc3ccccc3)nc(Cl)nc2c1I [Compound 414, 6-((1R,6R)-6-aminocyclohex-3-en-1-yl)-N-benzyl-2-chloro-7-iodothieno[3,2-d]pyrimidin-4-amine]
> 1000 nM	> 1000 nM	N[C@H]1CCCCC[C@H]1c1cc2nc(Cl)cc(NCc3cccs3)c2s1 [Compound 89, 2-((1R,2S)-2-aminocycloheptyl)-5-chloro-N-(thiophen-2-ylmethyl)thieno[3,2-b]pyridin-7-amine]
≤ 30 nM	30 to 300 nM	2-((1S,6S)-6-aminocyclohex-3-en-1-yl)-3-bromo-5-chloro-N-(thiophen-2-ylmethyl)thieno[3,2-b]pyridin-7-amine and 2-((1R,6R)-6-aminocyclohex-3-en-1-yl)-3-bromo-5-chloro-N-(thiophen-2-ylmethyl)thieno[3,2-b]pyridin-7-amine [Compound 256]

Compound	IC50 [1]	IC50 [2]
N[C@@H]1CCCO[C@H]1c1sc2c(NCc3cccs3)cc(Cl)nc2c1C#CCCO.N[C@H]1CCCO[C@@H]1c1sc2c(NCc3cccs3)cc(Cl)nc2c1C#CCCO (mixture of isomers) [Compound 213, 4-(2-((2R,3R)-3-aminotetrahydro-2H-pyran-2-yl)-5-chloro-7-((thiophen-2-ylmethyl)amino)thieno[3,2-b]pyridin-3-yl)but-3-yn-1-ol and 4-(2-((2S,3S)-3-aminotetrahydro-2H-pyran-2-yl)-5-chloro-7-((thiophen-2-ylmethyl)amino)thieno[3,2-b]pyridin-3-yl)but-3-yn-1-ol]	≤ 30 nM	≤ 30 nM
6-((3R,4S)-3-aminotetrahydro-2H-pyran-4-yl)-2-chloro-N-(furan-2-ylmethyl)-7-((trimethylsilyl)ethynyl)thieno[3,2-d]pyrimidin-4-amine and 6-((3S,4R)-3-aminotetrahydro-2H-pyran-4-yl)-2-chloro-N-(furan-2-ylmethyl)-7-((trimethylsilyl)ethynyl)thieno[3,2-d]pyrimidin-4-amine [Compound 317]	30 to 300 nM	30 to 300 nM
